# Data: patent US20140179681A1, “METHODS AND COMPOSITIONS OF TARGETED DRUG DEVELOPMENT” (priority 2010, published 2014)
# Where a name gives a salt, the structure may show the parent alone. Read-outs that look alike come from different tables or passages of the source.
# What was measured:
# [1] = target: T1, EGFR (Homo sapiens, UniProt P00533); test: EGFR in-cell Western (ICW) screening protocol (EGFR inhibition assay); format: cell-based; design: ICW 1 / ICW 2 / ICW Avg: unit not given here; conditions: for ICW Avg / ICW 1 / ICW 2: ICW assay; for ICW Avg: average of runs 1 and 2; for ICW 1: run 1; for ICW 2: run 2; for ICW assay: Table 10
# T1 construct: host or cells: A431
# Summary of the method: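 In-cell Western read-out: fixed A431 cells were co-stained for total EGFR and phospho-EGFR (Tyr1173; some runs Tyr1045). Before fixation, cells were serum-starved for 2 h, exposed to compound for 4 h, then given EGF for 10 min, usually at 10 ng/ml final (6.6 or 12.5 ng/ml in some runs).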
# [2] = system: epithelial carcinoma A431 cell line; test: MTT Cell Proliferation Assay, A431 cells; format: cell-based; conditions: for MTT Assay IC50(A431/MDBK): ratio in parentheses: ratio MDBK IC50 / A431 IC50 (selectivity)
# Summary of the method: (§1)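 Each concentration ran in quadruplicate across duplicate plates, with compounds serially diluted in DMSO and delivered at 0.5% DMSO in 0.5% FBS medium for 3 days.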
# [3] = system: MDBK line; test: MTT Cell Proliferation Assay, MDBK cells; format: cell-based, bovine
# Summary of the method: as §1
# [4] = Homo sapiens, A-431, first value of 'a/b (c)', taken as A431 cells, read-out: MTT Screen, first value of cell
# [5] = Bos taurus, MDBK, second value of 'a/b (c)', taken as MDBK cells, read-out: MTT Screen, second value of cell
# [6] = Homo sapiens, A-431, A431 cells, first value of cell, read-out: MTT Assay IC50(A431/MDBK): A431
# [7] = Bos taurus, MDBK, MDBK cells, second value of cell, read-out: MTT Assay IC50(A431/MDBK): MDBK
# [8] = % Inhibition of EGF dependent EGFR phosphorylation in A431 cells, compound 125 μM in assay
# [9] = Homo sapiens, A-431, 72 h, Table 10, first of x/y(ratio): A431, three day treatment, unit not printed (doses in μM), read-out: MTT assay (first value)
# [10] = Bos taurus, MDBK, 72 h, Table 10, second of x/y(ratio): MDBK, three day treatment, unit not printed (doses in μM), read-out: MTT assay (second value)
# [11] = first value of 'a/b (c)', taken as A431 cells, read-out: MTT Screen, first value of cell
# [12] = second value of 'a/b (c)', taken as MDBK cells, read-out: MTT Screen, second value of cell
# [13] = A431 cells, first value of cell, read-out: MTT Assay IC50(A431/MDBK): A431
# [14] = MDBK cells, second value of cell, read-out: MTT Assay IC50(A431/MDBK): MDBK
# [15] = Table 10, first of x/y(ratio): A431, three day treatment, unit not printed (doses in μM), read-out: MTT assay (first value)
# [16] = Table 10, second of x/y(ratio): MDBK, three day treatment, unit not printed (doses in μM), read-out: MTT assay (second value)
# T1 sequence (P00533 25-1210): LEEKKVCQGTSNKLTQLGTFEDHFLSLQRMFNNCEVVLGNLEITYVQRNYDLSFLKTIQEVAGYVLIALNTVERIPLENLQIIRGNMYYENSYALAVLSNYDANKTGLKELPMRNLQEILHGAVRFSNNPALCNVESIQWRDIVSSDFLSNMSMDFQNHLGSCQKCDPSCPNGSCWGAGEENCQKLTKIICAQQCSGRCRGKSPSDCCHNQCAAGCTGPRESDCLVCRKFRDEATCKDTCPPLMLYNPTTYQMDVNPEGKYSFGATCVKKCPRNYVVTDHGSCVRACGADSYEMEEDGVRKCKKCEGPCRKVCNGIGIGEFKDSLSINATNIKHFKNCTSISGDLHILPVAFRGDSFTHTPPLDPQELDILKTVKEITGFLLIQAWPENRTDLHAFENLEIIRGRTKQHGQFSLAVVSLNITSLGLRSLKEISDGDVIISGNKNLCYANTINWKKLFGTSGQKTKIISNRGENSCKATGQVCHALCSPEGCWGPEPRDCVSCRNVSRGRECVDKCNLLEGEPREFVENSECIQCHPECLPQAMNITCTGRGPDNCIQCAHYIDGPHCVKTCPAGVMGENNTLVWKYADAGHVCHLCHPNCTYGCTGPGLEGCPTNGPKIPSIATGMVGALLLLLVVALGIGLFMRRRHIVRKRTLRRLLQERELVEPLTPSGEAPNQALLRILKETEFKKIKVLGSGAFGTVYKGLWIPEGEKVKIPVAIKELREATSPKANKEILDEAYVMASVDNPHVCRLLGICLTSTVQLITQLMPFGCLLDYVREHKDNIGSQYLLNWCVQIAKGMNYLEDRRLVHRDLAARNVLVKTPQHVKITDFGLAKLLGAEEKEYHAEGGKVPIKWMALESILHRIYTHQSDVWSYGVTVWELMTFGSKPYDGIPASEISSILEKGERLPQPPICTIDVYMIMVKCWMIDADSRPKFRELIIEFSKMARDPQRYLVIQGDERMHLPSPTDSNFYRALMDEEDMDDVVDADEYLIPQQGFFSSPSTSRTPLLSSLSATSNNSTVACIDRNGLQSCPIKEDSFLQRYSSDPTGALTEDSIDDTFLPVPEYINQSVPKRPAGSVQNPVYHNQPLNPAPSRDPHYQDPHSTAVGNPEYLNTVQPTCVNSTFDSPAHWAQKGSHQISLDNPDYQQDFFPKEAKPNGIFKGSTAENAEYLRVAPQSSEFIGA
SMILES,ICW Screen (ICW Inhibition) [1],"IC50 [2, 4] [µM]",ICW Avg [1],ICW 1 [1],ICW 2 [1],"IC50 [2, 6] [µM]",MTT Assay IC50(A431/MDBK): ratio in parentheses [2],"IC50 [3, 7] [µM]",other results
COc1cc(NS(=O)(=O)c2ccc(NC(=S)NC(=O)/C=C/c3cccs3)cc2)nc(OC)n1 [AD4-11881],34.08,63.3,–,–,–,–,–,–,"IC50 [3, 5]: 46.5 µM"
Cc1cc(C)nc(NS(=O)(=O)c2ccc(NC(=S)NC(=O)/C=C/c3ccc(F)cc3)cc2)n1 [AD4-11871],45.776,49.7,–,–,–,–,–,–,"IC50 [3, 5]: 41.8 µM"
CCCCCc1c(C)nc(Nc2nc(C)c3ccc(C)cc3n2)[nH]c1=O [11730 + TFA],–,–,38.91,47.15,30.67,14.5,0.69,10.1,–
CN(c1ccccc1)S(=O)(=O)c1ccc(NC(=S)NC(=O)/C=C/c2ccccc2)cc1 [AD4-12168],28.819,60.5,–,–,–,–,–,–,"MTT Screen, first value of cell ([2]; first value of 'a/b (c)', taken as A431 cells): non- conver- gent; IC50 [3, 5]: 19.7 µM"
O=S(=O)(Nc1cc(Cl)cc(Cl)c1)c1ccc(NC(=S)Nc2cccc(C(F)(F)F)c2)cc1 [AD4-12509],–,–,–,–,–,–,–,–,"ICW assay [1, 8]: 140.975; IC50 [2, 9]: 5.49 µM; IC50 [3, 10]: 5.24 µM"
Cc1ccc(NS(=O)(=O)c2ccc(NC(=S)NC(=O)C3CCCCC3)cc2)cc1C [AD4-11417],40.711,–,–,–,–,–,–,–,"IC50 [2, 11]: 25.5 µM; IC50 [3, 12]: 49.3 µM"
Cc1ccc2nc(Nc3nc(-c4ccccc4C)cc(=O)[nH]3)nc(C)c2c1 [11785 + TFA],–,–,35.54,41.06,30.01,10.3,0.88,9.15,"IC50 ([2]; Homo sapiens, A-431, follow-up MTT, A431 cells, first value, read-out: MTT Follow-up: A431): 24.8 µM; MTT Follow-up: ratio in parentheses ([2]; follow-up MTT, ratio MDBK/A431): 1.04; IC50 ([3]; Bos taurus, MDBK, follow-up MTT, MDBK cells, second value, read-out: MTT Follow-up: MDBK): 25.9 µM"
COc1ccc(NS(=O)(=O)c2ccc(NC(=S)Nc3ccc(OC)c(OC)c3)cc2)cc1 [AD4-12433],–,–,–,–,–,–,–,–,"ICW assay [1, 8]: 54.4095; IC50 [2, 9]: 29.1 µM; IC50 [3, 10]: 38.5 µM"
CC1CCC(S(=O)(=O)c2ccc(NC(=S)NC(=O)C3CC3)cc2)CC1 (stereo not drawn) [AD4-12146],40.916,26.6,–,–,–,–,–,–,"IC50 [3, 5]: 25.8 µM"
CCc1nnc(NS(=O)(=O)c2ccc(NC(=S)NC(=O)/C=C/c3cccs3)cc2)s1 [AD4-11880],37.604,47.3,–,–,–,–,–,–,"IC50 [3, 5]: 47.3 µM"
CC1CCN(S(=O)(=O)c2ccc(NC(=S)NC(=O)C(C)C)cc2)CC1 [AD4-11977],33.588,32.5,–,–,–,–,–,–,"MTT Screen, second value of cell ([3]; second value of 'a/b (c)', taken as MDBK cells): non- conver- gent"
CC(C)c1ccc(NC(=S)Nc2ccc(S(=O)(=O)Nc3ccccc3)cc2)cc1 [AD4-12820],–,–,–,–,–,–,–,–,"ICW assay [1, 8]: 47.471; IC50 [2, 9]: 5.98 µM; IC50 [3, 10]: 5.93 µM"
CC(C)CC(=O)NC(=S)Nc1ccc(S(=O)(=O)NC2CCCCC2)cc1 [AD4-12041],43.515,6.61,–,–,–,–,–,–,"IC50 [3, 5]: 14.3 µM"
CC1CCN(S(=O)(=O)c2ccc(NC(=S)NC(=O)CCC(=O)OCCc3ccccc3)cc2)CC1 [AD4-12153],31.36,15.6,–,–,–,–,–,–,"IC50 [3, 5]: 21.8 µM"
CCOc1ccc2nc(Nc3ncc4c(n3)CC(c3ccco3)CC4=O)nc(C)c2c1 (stereo not drawn) [11674 + TFA],–,–,25.04,31.91,18.16,20.2,1.76,35.5,–
Cc1ccc(NS(=O)(=O)c2ccc(NC(=S)NC(=O)C3CCC3)cc2)cc1C [AD4-11422],44.982,–,–,–,–,–,–,–,"IC50 [2, 11]: 29.5 µM; IC50 [3, 12]: 9.23 µM"
CCOc1ccc(NC(=S)Nc2ccc(S(=O)(=O)Nc3cc(Cl)cc(Cl)c3)cc2)cc1 [AD4-12529],–,–,–,–,–,–,–,–,"ICW assay [1, 8]: 63.9249; IC50 [2, 9]: 6.35 µM; IC50 [3, 10]: 6.47 µM"
Cc1ccc(Cl)cc1NC(=S)Nc1ccc(S(=O)(=O)N2c3ccc(F)cc3CCC2C)cc1 (stereo not drawn) [AD4-12829],–,–,–,–,–,–,–,–,"ICW assay [1, 8]: 46.4407; IC50 [2, 9]: 37 µM; IC50 [3, 10]: 37.3 µM"
Cc1ccc(NS(=O)(=O)c2ccc(NC(=S)NC(=O)C(C)C)cc2)c(C)c1 [AD4-12062],34.268,64.5,–,–,–,–,–,–,"IC50 [3, 5]: 18.8 µM"
COc1ccc(NC(=S)Nc2ccc(S(=O)(=O)Nc3ccc(Cl)c(Cl)c3)cc2)cc1OC [AD4-11432],–,–,–,–,–,–,–,–,"ICW assay [1, 8]: 47.0006; IC50 [2, 15]: 7.8 µM; IC50 [3, 16]: 7.82 µM"
CN(Cc1ccccc1)S(=O)(=O)c1ccc(NC(=S)NC(=O)/C=C/c2ccccc2)cc1 [AD4-12126],37.795,14.9,–,–,–,–,–,–,"IC50 [3, 5]: 41.9 µM"
COc1ccc(C)cc1NC(=S)Nc1ccc(S(=O)(=O)Nc2cc(Cl)cc(Cl)c2)cc1 [AD4-12499],–,–,–,–,–,–,–,–,"ICW assay [1, 8]: 26.0767; IC50 [2, 9]: 6.99 µM; IC50 [3, 10]: 6.58 µM"
CCc1cc2c(CN3CCN(C(c4ccccc4)c4ccccc4)CC3)cc(=O)oc2cc1O [AD4-10619],–,–,–,–,–,–,–,–,"ICW Screen ([1]; Table 11, % Inhibition of EGF dependent EGFR phosphorylation in A431 cells, compound 125 μM in assay): −44.55; IC50 ([2]; Homo sapiens, A-431, Table 11, first of x/y(ratio): A431, unit inferred, read-out: MTT Follow-up (first value)): 2.97 µM; MTT Screen, % @ […] ([2]; Table 11, @ […], cell line not stated): 87% @ 2.6 μM; IC50 ([3]; Bos taurus, MDBK, Table 11, second of x/y(ratio): MDBK, unit inferred, read-out: MTT Follow-up (second value)): 3.06 µM"
O=S(=O)(Nc1ccc(Cl)cc1)c1ccc(NC(=S)Nc2cccc(C(F)(F)F)c2)cc1 [AD4-12423],–,–,–,–,–,–,–,–,"ICW assay [1, 8]: 129.155; IC50 [2, 9]: 6.35 µM; IC50 [2, 15]: 4.23 µM; IC50 [3, 10]: 5.77 µM; IC50 [3, 16]: 2.92 µM"
Cc1nc(Nc2nc(=O)c3c([nH]2)CCCC3)nc2c(C)cccc12 [11436 + TFA],–,–,59.65,59.16,60.14,5.86,0.48,2.8,–
C=CCc1c(C)nc(Nc2nc(C)c3cccc(C)c3n2)[nH]c1=O [12607 + TFA],–,–,32.62,38.40,26.85,16.6,0.71,11.8,–
CCc1ccc2c(C)nc(Nc3nc(C)c(CCC(C)C)c(=O)[nH]3)nc2c1 [11771 + TFA],–,–,46.95,51.58,42.32,18.2,2.32,42.1,–
COc1cccc2c(C)nc(Nc3nc4c(c(=O)[nH]3)CCCC4)nc12 [11484 + TFA],–,–,70.65,67.84,73.46,11.3,0.86,9.72,–

# Now from value to compound, other results behind:
ICW Screen (ICW Inhibition) [1],"IC50 [2, 4] [µM]",ICW Avg [1],ICW 1 [1],ICW 2 [1],"IC50 [2, 6] [µM]",MTT Assay IC50(A431/MDBK): ratio in parentheses [2],SMILES,"IC50 [3, 7] [µM]",other results
–,–,49.02,49.55,48.49,–,2.18,Cc1cc(C)nc(Nc2nc(-c3ccccc3)c3ccc(Cl)cc3n2)n1 [compound 12636],–,"IC50 [2, 13]: 15.9 µM; IC50 [3, 14]: 34.6 µM"
–,–,25.87,37.92,13.81,6.6,1.62,Cc1ccc2c(C)nc(Nc3nc4c(c(-c5ccccc5)n3)CCCC4)nc2c1 [compound 11777],10.7,–
26.829,15.5,–,–,–,–,–,CC1CCN(S(=O)(=O)c2ccc(NC(=S)NC(=O)C3CC3)cc2)CC1 [AD4-12286],–,"IC50 [3, 5]: 29.9 µM"
–,–,25.51,25.87,25.14,9.88,0.64,Cc1ccc2nc(Nc3nc(CSc4ncccn4)cc(=O)[nH]3)nc(C)c2c1 [compound 11751],6.31,–
–,–,35.24,29.34,41.14,43.1,0.89,CCCc1c(C)[nH]c(Nc2nc(C)c3cc(C)ccc3n2)nc1=O [compound 12661],38.2,–
–,–,82.77,79.12,86.41,–,1.35,CCCc1c(-c2ccccc2)nc(Nc2nc(C)c3ccccc3n2)[nH]c1=O [compound 12732],–,"IC50 [2, 13]: 11.1 µM; IC50 [3, 14]: 15 µM"
–,–,59.32,51.74,66.90,24.7,–,Cc1ccc2c(C)nc(Nc3nc(C(C)C)cc(=O)[nH]3)nc2c1 [compound 11472],19.4,–
